In paper PMC10600239, “Selective MCL-1 inhibitor ABBV-467 is efficacious in tumor models but is associated with cardiac troponin increases in patients” (Communications Medicine, 2023):
“And” between values parts separate entries of the source, which are not always exact repeats. Equal values may be shown once. Read-outs that look alike come from different tables or passages of the source.

Assay: Phase 1 first-in-human study (NCT04178902): pharmacokinetics
Format: in vivo
Conditions: for Tmax: read-out: Tmax (converted)
Text: Other eligibility criteria included: Eastern Cooperative Oncology Group performance status ≤2, measurable disease as defined by International Myeloma Working Group (IMWG) consensus criteria, an echocardiogram with an ejection fraction ≥50%, and adequate hematologic, hepatic, and renal function. […] Safety evaluations included, but were not limited to, adverse event (AE) monitoring, physical examinations, vital sign measurements, electrocardiogram (ECG), cardiac enzyme monitoring, and clinical laboratory testing (hematology and chemistry) as a measure of safety and tolerability for the entire study duration. Parameters used to determine PK included maximum observed plasma concentration (Cmax), terminal elimination half-life (t1/2), area under the plasma concentration-time curve (AUC) from time 0 to time of last measurable concentration (AUCt), AUC from time 0 to infinity (AUC0-∞), and clearance using non-compartmental methods. […] Preliminary efficacy endpoints were overall response rate (ORR), clinical benefit rate (CBR), and duration of response (DOR) as evaluated per adapted IMWG[36] criteria for MM and per adapted International Working Group (IWG)[37] and European Leukemia Net (ELN)[38] criteria for AML. […]

[1] = Cycle 1 day 15, 0.53 mg/kg, N=2, individual values
[2] = human, plasma, intravenous, 0.32 mg/kg, Cycle 1 day 1, dose level 0.32 mg/kg (only half of this dose given), N=2, individual values
[3] = human, plasma, intravenous, 0.53 mg/kg, Cycle 1 day 1, dose level 0.53 mg/kg (only half of this dose given), N=3
[4] = human, plasma, intravenous, 0.53 mg/kg, Cycle 1 day 15, 0.53 mg/kg, N=2, individual values

Q: With Cc1c(Cl)c2c(Cl)c(C)c1-c1c(-c3ccc(F)cc3)sc3ncnc(c13)O[C@@H](C(=O)O)Cc1cc(ccc1OCc1ccnc(-c3ccc(OC[C@H]4COCCO4)cc3)n1)OC[C@@H](CN1CCN(C)CC1)O2 [ABBV-467] as the compound, how does the t1/2 (Cycle 1 day 15, 0.32 mg/kg, N=2, individual values) read?
A: The t1/2 was 23.0 min and 54.3 min.

Q: And the AUCinf [1]?
A: The AUCinf was 1290 ng·h/mL.

Q: What about the AUCt [1] of the same compound?
A: The AUCt was 1280 ng·h/mL.

Q: And the CL [1]?
A: Its CL is 410 mL/h/kg.

Q: And the Cmax [1]?
A: Its Cmax is 1860 ng/mL.

Q: And the t1/2 [1]?
A: Its t1/2 is 64.1 min.

Q: And the “pharmacokinetics” value (human patients at the doses studied)?
A: The value was “linear pharmacokinetics”.

Q: And the concentration at 0 h (human, in vivo, 0.08 mg/kg, Cycle 1 Day 1, DOSE_MGKG 0.08, cohort 1, PKTIME 0, read-out: CONC_NGML)?
A: Its concentration at 0 h is 0 ng/mL.

Q: And the concentration at 20 min (human, in vivo, 0.08 mg/kg, Cycle 1 Day 1, DOSE_MGKG 0.08, cohort 1, PKTIME 0.333333, read-out: CONC_NGML)?
A: Its concentration at 20 min is 132 ng/mL.

Q: What about the concentration at 0.5 h (human, in vivo, 0.08 mg/kg, Cycle 1 Day 1, DOSE_MGKG 0.08, cohort 1, PKTIME 0.5, read-out: CONC_NGML) of the same compound?
A: The concentration at 0.5 h was 252 ng/mL.

Q: And the concentration at 4.5 h (human, in vivo, 0.08 mg/kg, Cycle 1 Day 1, DOSE_MGKG 0.08, cohort 1, PKTIME 4.5, read-out: CONC_NGML)?
A: Its concentration at 4.5 h is 0 ng/mL.

Q: What about the concentration at […] (human, in vivo, 0.08 mg/kg, Cycle 1 Day 1, DOSE_MGKG 0.08, cohort 1, PKTIME 8.5, read-out: CONC_NGML) of the same compound?
A: The concentration at […] was 0 ng/mL.

Q: What about the concentration at […] (human, in vivo, 0.08 mg/kg, Cycle 1 Day 1, DOSE_MGKG 0.08, cohort 1, PKTIME 24.5, read-out: CONC_NGML) of the same compound?
A: The concentration at […] was 0 ng/mL.

Q: And the concentration at 0 h (human, in vivo, 0.265 mg/kg, Cycle 1 Day 1, DOSE_MGKG 0.265, cohort 3, PKTIME 0, read-out: CONC_NGML)?
A: Its concentration at 0 h is 0 ng/mL.

Q: What about the concentration at 20 min (human, in vivo, 0.265 mg/kg, Cycle 1 Day 1, DOSE_MGKG 0.265, cohort 3, PKTIME 0.333333, read-out: CONC_NGML) of the same compound?
A: The concentration at 20 min was 904 ng/mL.

Q: And the concentration at 0.5 h (human, in vivo, 0.265 mg/kg, Cycle 1 Day 1, DOSE_MGKG 0.265, cohort 3, PKTIME 0.5, read-out: CONC_NGML)?
A: Its concentration at 0.5 h is 564 ng/mL.

Q: What about the concentration at 1.5 h (human, in vivo, 0.265 mg/kg, Cycle 1 Day 1, DOSE_MGKG 0.265, cohort 3, PKTIME 1.5, read-out: CONC_NGML) of the same compound?
A: Its concentration at 1.5 h is 14.9 ng/mL.

Q: And the concentration at […] (human, in vivo, 0.265 mg/kg, Cycle 1 Day 1, DOSE_MGKG 0.265, cohort 3, PKTIME 2.5, read-out: CONC_NGML)?
A: Its concentration at […] is 8.88 ng/mL.

Q: And the concentration at […] (human, in vivo, 0.265 mg/kg, Cycle 1 Day 1, DOSE_MGKG 0.265, cohort 3, PKTIME 8.5, read-out: CONC_NGML)?
A: The concentration at […] was 0 ng/mL.

Q: And the concentration at […] (human, in vivo, 0.265 mg/kg, Cycle 1 Day 1, DOSE_MGKG 0.265, cohort 3, PKTIME 24.5, read-out: CONC_NGML)?
A: Its concentration at […] is 0 ng/mL.

Q: What about the concentration at 0 h (human, in vivo, 0.32 mg/kg, Cycle 1 Day 15, DOSE_MGKG 0.32, cohort 2, PKTIME 0, read-out: CONC_NGML) of the same compound?
A: The concentration at 0 h was 0 ng/mL.

Q: What about the concentration at 20 min (human, in vivo, 0.32 mg/kg, Cycle 1 Day 15, DOSE_MGKG 0.32, cohort 2, PKTIME 0.333333, read-out: CONC_NGML) of the same compound?
A: The concentration at 20 min was 646 ng/mL.

Q: What about the concentration at […] (human, in vivo, 0.32 mg/kg, Cycle 1 Day 15, DOSE_MGKG 0.32, cohort 2, PKTIME 8.5, read-out: CONC_NGML) of the same compound?
A: Its concentration at […] is 0 ng/mL.

Q: And the concentration at […] (human, in vivo, 0.32 mg/kg, Cycle 1 Day 15, DOSE_MGKG 0.32, cohort 2, PKTIME 24.5, read-out: CONC_NGML)?
A: The concentration at […] was 0 ng/mL.

Q: What about the concentration at 10 min (human, in vivo, 0.53 mg/kg, Cycle 1 Day 15, DOSE_MGKG 0.53, cohort 3, PKTIME 0.166667, read-out: CONC_NGML) of the same compound?
A: Its concentration at 10 min is 731 ng/mL.

Q: And the concentration at 20 min (human, in vivo, 0.53 mg/kg, Cycle 1 Day 15, DOSE_MGKG 0.53, cohort 3, PKTIME 0.333333, read-out: CONC_NGML)?
A: The concentration at 20 min was 1370 ng/mL.

Q: What about the concentration at 0.5 h (human, in vivo, 0.53 mg/kg, Cycle 1 Day 15, DOSE_MGKG 0.53, cohort 3, PKTIME 0.5, read-out: CONC_NGML) of the same compound?
A: Its concentration at 0.5 h is 1860 ng/mL.

Q: What about the concentration at 1.5 h (human, in vivo, 0.53 mg/kg, Cycle 1 Day 15, DOSE_MGKG 0.53, cohort 3, PKTIME 1.5, read-out: CONC_NGML) of the same compound?
A: Its concentration at 1.5 h is 87.9 ng/mL.

Q: What about the concentration at […] (human, in vivo, 0.53 mg/kg, Cycle 1 Day 15, DOSE_MGKG 0.53, cohort 3, PKTIME 2.5, read-out: CONC_NGML) of the same compound?
A: Its concentration at […] is 27.3 ng/mL.

Q: What about the concentration at 4.5 h (human, in vivo, 0.53 mg/kg, Cycle 1 Day 15, DOSE_MGKG 0.53, cohort 3, PKTIME 4.5, read-out: CONC_NGML) of the same compound?
A: The concentration at 4.5 h was 11.3 ng/mL.

Q: What about the concentration at […] (human, in vivo, 0.53 mg/kg, Cycle 1 Day 15, DOSE_MGKG 0.53, cohort 3, PKTIME 8.5, read-out: CONC_NGML) of the same compound?
A: Its concentration at […] is 0 ng/mL.

Q: And the concentration at […] (human, in vivo, 0.53 mg/kg, Cycle 1 Day 15, DOSE_MGKG 0.53, cohort 3, PKTIME 24.5, read-out: CONC_NGML)?
A: The concentration at […] was 0 ng/mL.

Q: And the AUC(0-inf) [2]?
A: Its AUC(0-inf) is 167 ng·h/mL.

Q: And the AUC(0-t) [2]?
A: The AUC(0-t) was 159 ng·h/mL.

Q: What about the clearance [2] of the same compound?
A: Its clearance is 15.9 mL/min/kg.

Q: And the Cmax (human, plasma, intravenous, 0.32 mg/kg, Cycle 1 day 1, dose level 0.32 mg/kg (only half of this dose given), N=2, individual values, read-out: Cmax)?
A: Its Cmax is 474 ng/mL.

Q: And the Tmax [2]?
A: Its Tmax is 20 min.

Q: And the half-life (human, plasma, intravenous, 0.32 mg/kg, Cycle 1 day 1, dose level 0.32 mg/kg (only half of this dose given), N=2, individual values, read-out: t1/2)?
A: The half-life was 50.8 min.

Q: And the AUC(0-inf) [3]?
A: The AUC(0-inf) was 435 ng·h/mL.

Q: What about the AUC(0-t) [3] of the same compound?
A: The AUC(0-t) was 428 ng·h/mL.

Q: And the clearance [3]?
A: Its clearance is 10.2 mL/min/kg.

Q: And the half-life (human, plasma, intravenous, 0.53 mg/kg, Cycle 1 day 1, dose level 0.53 mg/kg (only half of this dose given), N=3, harmonic mean (pseudo SD), read-out: t1/2)?
A: Its half-life is 55.5 min.

Q: And the Tmax (human, plasma, intravenous, 0.53 mg/kg, Cycle 1 day 1, dose level 0.53 mg/kg (only half of this dose given), N=3, median)?
A: The Tmax was 30 min.

Q: What about the AUC(0-inf) [4] of the same compound?
A: The AUC(0-inf) was 933 ng·h/mL.

Q: What about the AUC(0-t) [4] of the same compound?
A: The AUC(0-t) was 921 ng·h/mL.

Q: And the clearance [4]?
A: The clearance was 9.47 mL/min/kg.

Q: And the Cmax (human, plasma, intravenous, 0.53 mg/kg, Cycle 1 day 15, 0.53 mg/kg, N=2, individual values, read-out: Cmax)?
A: Its Cmax is 1510 ng/mL.

Q: What about the Tmax [4] of the same compound?
A: The Tmax was 30 min.

Q: What about the half-life (human, plasma, intravenous, 0.53 mg/kg, Cycle 1 day 15, 0.53 mg/kg, N=2, individual values, read-out: t1/2) of the same compound?
A: The half-life was 63.3 min.

Q: And the half-life (human, plasma, intravenous, […], Cycle 1 day 1, dose level […] (only half of this dose given), N=3, harmonic mean (pseudo SD), read-out: t1/2)?
A: The half-life was 16.1 min.

Q: What about the Tmax (human, plasma, intravenous, […], Cycle 1 day 1, dose level […] (only half of this dose given), N=3, median) of the same compound?
A: The Tmax was 30 min.

Q: And the clearance (human, plasma, intravenous, […], Cycle 1 day 15, […], N=3)?
A: The clearance was 10.4 mL/min/kg.

Q: What about the Tmax (human, plasma, intravenous, […], Cycle 1 day 15, […], N=3, median) of the same compound?
A: Its Tmax is 30 min.

Q: And the half-life (human, plasma, iv, patients, 30-minute IV infusion, 0.08–0.53 mg/kg, read-out: average half-life)?
A: The half-life was under 60 min.

Q: And the “time after completion of infusion at which circulating plasma concentrations were eliminated” value (patients, 30-minute IV infusion)?
A: Its value is 4 h.
